Laboratory results as given in US9980943B2, “Methods of treating muscular dystrophy” (BOARD OF REGENTS OF THE NEVADA SYSTEM OF HIGHER EDUCATION, …, priority 2013, dated 2018).

Legend:
Assay type in all cases: cell-based, mouse
[1] = tested on: α7 integrin (LacZ reporter in α7βgal+/− myoblasts); experiment: Myoblast α7+/LacZ integrin FDG assay (Burkin assay in myoblasts, 96-well); conditions: SU9516 analogs, 96-well, N=3-6
[2] = tested on: α7 integrin (LacZ reporter in α7+/LacZ myotubes); experiment: Myotube α7 integrin FDG assay (Burkin assay in myotubes, 96-well); conditions: SU9516 analogs, 96-well, N=3-6
[3] = tested on: β-galactosidase in CMV-LacZ C2C12 myoblasts; experiment: CMV-LacZ secondary screen in C2C12 myoblasts (β-Gal stabilizing assay); conditions: SU9516 analogs, C2C12 CMV-LacZ, N=2
In short: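 Stable CMV-LacZ C2C12 clone; six-point curve 0.5–40 μM; duplicates.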

[4] = tested on: β-galactosidase in CMV-LacZ C2C12 myotubes; experiment: CMV-LacZ secondary screen in C2C12 myotubes (β-Gal stabilizing assay); conditions: SU9516 analogs, C2C12 CMV-LacZ, N=2
In short: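 CMV-LacZ C2C12 line (clonal, FDG-screened); myoblasts/myotubes dosed 0.5–40 μM (0.5, 1, 5, 10, 20, 40 μM); n=2 per point; β-gal stabilization read-out.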

Structure (SMILES)	Burkin Assay in Myoblasts, value relative to DMSO ([1]; 0.5 uM)	Burkin Assay in Myoblasts, value relative to DMSO ([1]; 1 uM)	Burkin Assay in Myoblasts, value relative to DMSO ([1]; 5 uM)	Burkin Assay in Myoblasts, value relative to DMSO ([1]; 10 uM)	Burkin Assay in Myoblasts, value relative to DMSO ([1]; 20 uM)	Burkin Assay in Myoblasts, value relative to DMSO ([1]; 40 uM)	Burkin Assay in Myotubes, value relative to DMSO ([2]; 0.5 uM)	Burkin Assay in Myotubes, value relative to DMSO ([2]; 1 uM)	Burkin Assay in Myotubes, value relative to DMSO ([2]; 5 uM)	Burkin Assay in Myotubes, value relative to DMSO ([2]; 10 uM)	Burkin Assay in Myotubes, value relative to DMSO ([2]; 20 uM)	Burkin Assay in Myotubes, value relative to DMSO ([2]; 40 uM)	CMV-LACZ in Myoblasts, value relative to DMSO ([3]; 0.5 uM)	CMV-LACZ in Myoblasts, value relative to DMSO ([3]; 5 uM)	CMV-LACZ in Myoblasts, value relative to DMSO ([3]; 10 uM)	CMV-LACZ in Myoblasts, value relative to DMSO ([3]; 20 uM)	CMV-LACZ in Myoblasts, value relative to DMSO ([3]; 40 uM)	CMV-LACZ in Myotubes, value relative to DMSO ([4]; 0.5 uM)	CMV-LACZ in Myotubes, value relative to DMSO ([4]; 1 uM)	CMV-LACZ in Myotubes, value relative to DMSO ([4]; 5 uM)	also measured
CCN(CC)CCNC(=O)c1c(C)[nH]c(/C=C2\C(=O)Nc3ccc(F)cc32)c1C [NCGC00164631-03]	0.8373	1.032	0.3224	0.01373	0.01408	0.01283	0.9512	0.9445	0.5505	0.1881	0.09031	0.07758	0.8658	0.7817	0.2763	0.1830	0.1767	1.2682	1.2736	0.8420	CMV-LACZ in Myotubes, value relative to DMSO ([4]; 10 uM): 0.3964; CMV-LACZ in Myotubes, value relative to DMSO ([4]; 20 uM): 0.6690; CMV-LACZ in Myotubes, value relative to DMSO ([4]; 40 uM): 0.7680
CCN(CC)CCNC(=O)c1c(C)[nH]c(/C=C2\C(=O)Nc3ccc(F)cc32)c1C [NCGC00164631-04]	1.023	1.011	0.529	0.08696	0.01476	0.01361	0.9761	0.9998	0.7739	0.2132	0.08218	0.08093	0.8225	0.6842	0.4405	0.2323	0.1827	1.1336	0.9164	0.8803	CMV-LACZ in Myotubes, value relative to DMSO ([4]; 10 uM): 0.3804; CMV-LACZ in Myotubes, value relative to DMSO ([4]; 20 uM): 0.6490; CMV-LACZ in Myotubes, value relative to DMSO ([4]; 40 uM): 0.6690
O=C1C(c2c(O)[nH]c3ccccc23)=Nc2ccccc21 [NCGC00179302-02]	1.061	1.0859	0.606	0.7163	0.843	0.8067	0.9349	0.9377	0.8181	0.7913	0.682	0.6871	1.1867	2.4679	1.6628	1.0247	1.2873	0.9618	0.9736	1.1533	CMV-LACZ in Myotubes, value relative to DMSO ([4]; 10 uM): 0.9196; CMV-LACZ in Myotubes, value relative to DMSO ([4]; 20 uM): 1.0030; CMV-LACZ in Myotubes, value relative to DMSO ([4]; 40 uM): 1.1410
